One may read the inhibition as the relative decrease from the control value, in per cent.

SMILES strings stand for the structures.

Conditions in all cases: Compound concentration 10 µM
Assay [1] has as its target T1, Alpha-2A adrenergic receptor (Homo sapiens) (UniProt P08913).
T1 sequence (whole entry): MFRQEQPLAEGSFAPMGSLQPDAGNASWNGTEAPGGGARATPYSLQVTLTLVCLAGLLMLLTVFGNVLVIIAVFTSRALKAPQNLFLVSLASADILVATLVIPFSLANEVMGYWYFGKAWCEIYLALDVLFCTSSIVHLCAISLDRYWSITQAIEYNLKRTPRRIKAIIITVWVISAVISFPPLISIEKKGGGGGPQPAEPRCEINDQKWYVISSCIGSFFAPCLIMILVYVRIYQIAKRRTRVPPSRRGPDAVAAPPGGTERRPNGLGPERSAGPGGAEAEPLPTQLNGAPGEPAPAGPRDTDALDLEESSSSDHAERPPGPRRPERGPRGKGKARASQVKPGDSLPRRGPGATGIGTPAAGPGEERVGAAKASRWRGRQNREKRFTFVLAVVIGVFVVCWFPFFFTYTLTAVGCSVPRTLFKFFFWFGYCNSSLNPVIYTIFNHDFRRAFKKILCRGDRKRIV

The target in assay [2] is T2, Alpha-2C adrenergic receptor (Homo sapiens) (UniProt P18825).
T2 sequence (whole entry): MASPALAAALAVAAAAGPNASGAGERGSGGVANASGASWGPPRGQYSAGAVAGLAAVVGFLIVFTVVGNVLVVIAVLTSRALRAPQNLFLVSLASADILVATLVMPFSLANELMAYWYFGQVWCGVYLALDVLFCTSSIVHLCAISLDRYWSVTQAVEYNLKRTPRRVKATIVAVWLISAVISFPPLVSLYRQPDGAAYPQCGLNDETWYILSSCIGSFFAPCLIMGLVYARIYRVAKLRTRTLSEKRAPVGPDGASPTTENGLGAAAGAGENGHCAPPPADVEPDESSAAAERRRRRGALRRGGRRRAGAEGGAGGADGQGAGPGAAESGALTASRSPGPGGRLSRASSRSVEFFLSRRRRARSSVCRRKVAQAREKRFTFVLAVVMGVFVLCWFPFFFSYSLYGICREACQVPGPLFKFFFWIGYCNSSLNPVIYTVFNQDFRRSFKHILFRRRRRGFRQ

Assay [3] deals with Muscarinic acetylcholine receptor M3 (Homo sapiens) (UniProt P20309).
Muscarinic acetylcholine receptor M3 (Homo sapiens), sequence (P20309 whole entry, looked up): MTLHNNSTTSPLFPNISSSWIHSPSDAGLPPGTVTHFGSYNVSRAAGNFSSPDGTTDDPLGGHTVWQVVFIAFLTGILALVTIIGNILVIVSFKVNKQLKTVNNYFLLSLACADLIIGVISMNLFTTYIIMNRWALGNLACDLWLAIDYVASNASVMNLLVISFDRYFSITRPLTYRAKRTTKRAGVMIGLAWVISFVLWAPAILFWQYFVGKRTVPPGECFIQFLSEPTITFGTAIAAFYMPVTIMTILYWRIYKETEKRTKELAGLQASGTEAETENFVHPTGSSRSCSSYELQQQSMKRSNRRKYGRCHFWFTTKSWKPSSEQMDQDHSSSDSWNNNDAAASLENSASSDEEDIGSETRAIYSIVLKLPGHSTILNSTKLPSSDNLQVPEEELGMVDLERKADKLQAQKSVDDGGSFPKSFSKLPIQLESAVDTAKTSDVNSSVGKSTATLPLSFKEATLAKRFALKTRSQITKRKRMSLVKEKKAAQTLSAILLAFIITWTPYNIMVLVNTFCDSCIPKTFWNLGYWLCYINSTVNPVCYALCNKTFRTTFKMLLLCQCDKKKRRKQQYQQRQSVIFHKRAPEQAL
For assay [4], the target named is D(3) dopamine receptor (Homo sapiens) (UniProt P35462).
D(3) dopamine receptor (Homo sapiens), sequence (P35462 whole entry): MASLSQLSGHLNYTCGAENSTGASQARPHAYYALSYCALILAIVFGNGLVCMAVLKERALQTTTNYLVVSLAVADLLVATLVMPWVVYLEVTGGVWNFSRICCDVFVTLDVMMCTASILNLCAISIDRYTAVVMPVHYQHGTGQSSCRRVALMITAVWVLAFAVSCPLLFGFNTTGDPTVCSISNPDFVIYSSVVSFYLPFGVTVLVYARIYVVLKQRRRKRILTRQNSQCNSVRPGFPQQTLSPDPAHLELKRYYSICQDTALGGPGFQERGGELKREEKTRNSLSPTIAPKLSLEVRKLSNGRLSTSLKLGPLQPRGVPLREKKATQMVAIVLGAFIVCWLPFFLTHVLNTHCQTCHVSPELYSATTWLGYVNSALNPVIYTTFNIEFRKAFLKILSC
In assay [5] the target is T3, D(4) dopamine receptor (Homo sapiens) (UniProt P21917).
T3 sequence (whole entry): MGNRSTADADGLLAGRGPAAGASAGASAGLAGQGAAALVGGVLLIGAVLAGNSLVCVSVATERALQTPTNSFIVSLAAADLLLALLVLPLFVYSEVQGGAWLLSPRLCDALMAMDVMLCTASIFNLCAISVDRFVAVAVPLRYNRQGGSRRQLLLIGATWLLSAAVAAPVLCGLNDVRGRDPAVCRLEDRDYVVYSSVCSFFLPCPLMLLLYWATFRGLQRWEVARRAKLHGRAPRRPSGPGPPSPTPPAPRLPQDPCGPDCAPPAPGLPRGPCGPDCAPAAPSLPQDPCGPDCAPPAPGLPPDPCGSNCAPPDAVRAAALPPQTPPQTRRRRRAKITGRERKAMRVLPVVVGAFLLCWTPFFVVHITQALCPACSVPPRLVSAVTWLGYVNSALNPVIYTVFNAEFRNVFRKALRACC

Assay [6] concerns the target Histamine H3 receptor (Homo sapiens) (UniProt Q9Y5N1).
Assay [7] has as its target Histamine H4 receptor (Homo sapiens) (UniProt Q9H3N8).
Assay [8] has as its target T4, 5-hydroxytryptamine receptor 1A (Homo sapiens) (UniProt P08908).
T4 sequence (whole entry): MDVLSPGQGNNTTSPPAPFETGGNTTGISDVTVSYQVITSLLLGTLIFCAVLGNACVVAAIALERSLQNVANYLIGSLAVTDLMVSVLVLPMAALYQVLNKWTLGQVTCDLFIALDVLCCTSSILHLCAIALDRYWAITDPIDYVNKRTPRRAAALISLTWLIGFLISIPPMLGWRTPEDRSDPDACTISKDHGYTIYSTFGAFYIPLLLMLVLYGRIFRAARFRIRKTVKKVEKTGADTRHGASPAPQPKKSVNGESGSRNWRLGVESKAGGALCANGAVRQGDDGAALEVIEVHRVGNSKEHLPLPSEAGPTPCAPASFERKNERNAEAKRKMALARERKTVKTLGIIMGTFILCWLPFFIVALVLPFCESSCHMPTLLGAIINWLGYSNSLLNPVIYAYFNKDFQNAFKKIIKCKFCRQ

Assay [9] deals with 5-hydroxytryptamine receptor 1E (Homo sapiens) (UniProt P28566).
5-hydroxytryptamine receptor 1E (Homo sapiens), sequence (P28566 whole entry): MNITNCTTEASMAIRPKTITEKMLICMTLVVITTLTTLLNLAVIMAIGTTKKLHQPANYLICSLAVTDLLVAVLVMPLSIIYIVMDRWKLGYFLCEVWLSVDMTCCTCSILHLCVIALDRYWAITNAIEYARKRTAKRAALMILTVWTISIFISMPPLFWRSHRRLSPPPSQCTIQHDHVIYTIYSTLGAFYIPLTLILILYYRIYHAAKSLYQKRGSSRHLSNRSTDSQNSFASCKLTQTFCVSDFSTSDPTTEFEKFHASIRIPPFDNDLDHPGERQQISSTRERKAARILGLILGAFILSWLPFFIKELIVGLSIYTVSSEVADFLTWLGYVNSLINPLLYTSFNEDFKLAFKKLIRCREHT
Assay [10] concerns the target T5, 5-hydroxytryptamine receptor 3A (Homo sapiens) (UniProt P46098).
T5 sequence (whole entry): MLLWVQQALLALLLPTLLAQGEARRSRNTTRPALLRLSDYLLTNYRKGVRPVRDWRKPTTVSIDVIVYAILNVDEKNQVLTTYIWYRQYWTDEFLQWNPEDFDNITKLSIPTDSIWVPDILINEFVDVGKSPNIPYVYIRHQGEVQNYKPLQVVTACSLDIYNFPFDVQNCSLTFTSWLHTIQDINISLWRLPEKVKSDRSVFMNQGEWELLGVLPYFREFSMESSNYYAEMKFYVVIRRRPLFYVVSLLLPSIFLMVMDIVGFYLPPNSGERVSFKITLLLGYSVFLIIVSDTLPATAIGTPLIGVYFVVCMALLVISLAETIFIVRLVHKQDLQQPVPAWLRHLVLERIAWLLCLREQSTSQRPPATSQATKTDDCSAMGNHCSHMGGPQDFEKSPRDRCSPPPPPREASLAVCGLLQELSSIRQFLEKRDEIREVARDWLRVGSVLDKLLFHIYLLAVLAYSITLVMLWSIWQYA

Assay [11] has as its target 5-hydroxytryptamine receptor 6 (Homo sapiens) (UniProt P50406).
In assay [12] the target is 5-hydroxytryptamine receptor 7 (Homo sapiens) (UniProt P34969).
5-hydroxytryptamine receptor 7 (Homo sapiens), sequence (P34969 whole entry): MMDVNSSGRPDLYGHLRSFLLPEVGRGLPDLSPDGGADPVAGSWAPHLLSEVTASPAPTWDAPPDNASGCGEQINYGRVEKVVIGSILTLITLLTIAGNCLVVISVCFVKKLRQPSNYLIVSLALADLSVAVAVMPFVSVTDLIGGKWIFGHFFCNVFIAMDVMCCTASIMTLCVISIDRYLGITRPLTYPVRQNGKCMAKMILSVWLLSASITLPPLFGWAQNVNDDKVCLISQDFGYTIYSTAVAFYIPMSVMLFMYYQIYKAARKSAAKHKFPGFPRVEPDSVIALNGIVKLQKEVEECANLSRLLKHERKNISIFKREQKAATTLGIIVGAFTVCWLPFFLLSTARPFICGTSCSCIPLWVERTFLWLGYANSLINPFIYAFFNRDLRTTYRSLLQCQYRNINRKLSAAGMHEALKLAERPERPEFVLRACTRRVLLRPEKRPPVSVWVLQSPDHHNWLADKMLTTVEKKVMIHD
The target in assay [13] is Sodium-dependent noradrenaline transporter (Homo sapiens) (UniProt P23975).
Sodium-dependent noradrenaline transporter (Homo sapiens), sequence (P23975 whole entry): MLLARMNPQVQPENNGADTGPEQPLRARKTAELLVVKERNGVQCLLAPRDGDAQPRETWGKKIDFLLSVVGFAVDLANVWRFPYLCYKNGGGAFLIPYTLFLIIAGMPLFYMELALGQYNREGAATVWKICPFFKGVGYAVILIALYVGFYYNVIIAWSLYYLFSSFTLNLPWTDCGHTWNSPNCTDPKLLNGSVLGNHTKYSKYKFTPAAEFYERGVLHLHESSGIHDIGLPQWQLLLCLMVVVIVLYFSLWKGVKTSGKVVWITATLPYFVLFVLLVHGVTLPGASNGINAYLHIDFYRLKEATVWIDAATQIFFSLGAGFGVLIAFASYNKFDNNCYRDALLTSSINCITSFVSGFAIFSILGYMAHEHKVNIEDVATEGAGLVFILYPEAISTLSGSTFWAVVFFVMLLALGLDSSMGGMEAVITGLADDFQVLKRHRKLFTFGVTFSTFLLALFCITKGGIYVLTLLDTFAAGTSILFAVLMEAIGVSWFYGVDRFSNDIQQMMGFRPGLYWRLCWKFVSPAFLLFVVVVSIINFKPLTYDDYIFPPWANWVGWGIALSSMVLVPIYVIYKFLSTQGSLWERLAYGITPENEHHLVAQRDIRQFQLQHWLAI
Assay [14] concerns the target Sodium-dependent serotonin transporter (Homo sapiens) (UniProt P31645).

5-hydroxytryptamine receptor 6 (Homo sapiens), sequence (P50406 whole entry): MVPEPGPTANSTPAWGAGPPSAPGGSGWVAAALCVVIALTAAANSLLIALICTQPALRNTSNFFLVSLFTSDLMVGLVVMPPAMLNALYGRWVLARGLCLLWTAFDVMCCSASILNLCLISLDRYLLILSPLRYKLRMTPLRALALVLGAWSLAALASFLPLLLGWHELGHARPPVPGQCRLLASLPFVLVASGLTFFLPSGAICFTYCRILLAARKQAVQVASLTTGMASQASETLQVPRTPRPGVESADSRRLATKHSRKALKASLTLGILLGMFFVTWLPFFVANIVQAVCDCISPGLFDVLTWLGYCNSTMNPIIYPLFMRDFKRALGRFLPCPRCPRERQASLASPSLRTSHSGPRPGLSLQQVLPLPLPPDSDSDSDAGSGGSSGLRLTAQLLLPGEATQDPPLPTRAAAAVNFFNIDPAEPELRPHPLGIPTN
Histamine H4 receptor (Homo sapiens), sequence (Q9H3N8 whole entry): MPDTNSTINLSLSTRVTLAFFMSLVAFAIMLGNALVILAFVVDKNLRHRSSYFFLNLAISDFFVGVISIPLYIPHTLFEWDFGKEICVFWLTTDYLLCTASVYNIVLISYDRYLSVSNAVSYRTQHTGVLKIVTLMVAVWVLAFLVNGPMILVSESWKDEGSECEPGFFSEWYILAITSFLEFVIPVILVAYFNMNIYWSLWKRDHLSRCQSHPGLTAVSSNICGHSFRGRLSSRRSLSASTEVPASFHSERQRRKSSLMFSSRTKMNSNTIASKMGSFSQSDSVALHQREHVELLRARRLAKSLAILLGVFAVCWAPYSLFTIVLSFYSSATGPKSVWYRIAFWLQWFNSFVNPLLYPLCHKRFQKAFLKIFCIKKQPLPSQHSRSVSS
Histamine H3 receptor (Homo sapiens), sequence (Q9Y5N1 whole entry): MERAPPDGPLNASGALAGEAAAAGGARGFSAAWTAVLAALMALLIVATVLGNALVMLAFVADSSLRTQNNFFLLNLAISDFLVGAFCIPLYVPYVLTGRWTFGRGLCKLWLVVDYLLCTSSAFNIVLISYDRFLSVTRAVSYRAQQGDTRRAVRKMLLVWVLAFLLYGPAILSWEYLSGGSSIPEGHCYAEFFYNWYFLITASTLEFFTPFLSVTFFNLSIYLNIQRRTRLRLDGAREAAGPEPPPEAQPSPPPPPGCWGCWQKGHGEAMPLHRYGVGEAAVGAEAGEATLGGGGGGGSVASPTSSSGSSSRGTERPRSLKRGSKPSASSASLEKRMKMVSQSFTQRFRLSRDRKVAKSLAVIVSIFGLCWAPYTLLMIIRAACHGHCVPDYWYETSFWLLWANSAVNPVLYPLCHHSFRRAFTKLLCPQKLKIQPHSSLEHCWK
Sodium-dependent serotonin transporter (Homo sapiens), sequence (P31645 whole entry, looked up): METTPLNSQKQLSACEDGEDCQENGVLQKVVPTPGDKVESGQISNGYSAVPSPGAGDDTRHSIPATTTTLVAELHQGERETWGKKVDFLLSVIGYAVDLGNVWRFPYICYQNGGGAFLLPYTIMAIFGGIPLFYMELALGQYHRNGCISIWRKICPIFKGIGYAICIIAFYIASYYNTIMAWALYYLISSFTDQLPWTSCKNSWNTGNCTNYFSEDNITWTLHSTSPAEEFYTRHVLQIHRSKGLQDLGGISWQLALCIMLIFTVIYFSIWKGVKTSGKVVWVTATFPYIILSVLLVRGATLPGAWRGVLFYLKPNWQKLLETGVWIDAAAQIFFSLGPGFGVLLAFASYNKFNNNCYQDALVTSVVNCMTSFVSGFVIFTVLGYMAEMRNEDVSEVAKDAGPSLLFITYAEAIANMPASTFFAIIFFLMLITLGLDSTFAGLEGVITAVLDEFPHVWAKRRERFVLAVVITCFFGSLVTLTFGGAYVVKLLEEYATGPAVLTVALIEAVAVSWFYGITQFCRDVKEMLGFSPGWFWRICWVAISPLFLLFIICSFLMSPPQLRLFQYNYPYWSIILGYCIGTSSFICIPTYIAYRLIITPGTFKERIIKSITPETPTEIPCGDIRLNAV

As to `Cc1nc2sccn2c(=O)c1CCN1CCC(=C(c2ccc(F)cc2)c2ccc(F)cc2)CC1`, the inhibition is 98.8% in assay [1]; 94.9% in assay [2]; 6.1% in assay [3]; 94.6% in assay [4]; 82.1% in [5]; 30.7% in [6]. For the same molecule, the inhibition is 59% in assay [7]; 30.5% in assay [8]; 80.8% in assay [9]; 4.51% in assay [10]; 98.1% in assay [11]; 90.2% in assay [12]. In addition, the values for the inhibition in assay [13] and in [14] were 53.7% and 80.8%, respectively.

In the case of `S=C(NCCCc1c[nH]cn1)NCCCN(Cc1ccc(Cl)c(Cl)c1)c1ccc(Br)cn1`, the inhibition in assay [1] is 97.5%; in assay [2] it was 101%; in assay [3], 48.4%; in assay [4], 62.3%; in assay [5] it was 40.9%; in [6], 100%. The inhibition in assay [7] is 99.3%; in assay [8] it was 43.2%; in assay [9] it was 7.46%; in assay [10] it was 33.5%; in assay [11], 74%; in [12] it was 74.9%. Besides, the inhibition in assay [13] is 94.1%; in [14] it was 95%.

Turning to `Cc1nc(-c2ccc(-c3ccc(C(=O)N4CCc5cc6c(cc54)C4(CCN(C)CC4)CO6)cc3)c(C)c2)no1`, the inhibition was 73% in [1]; 38% in [2]; 73% in assay [3]; 18.8% in assay [4]; 16.6% in assay [5]; 35.6% in assay [6]. The inhibition in [7] was 20.5%; in assay [8], 9.17%; in assay [9], 0.78%; in assay [10], 43.9%; in assay [11], -6.79%; in assay [12], 25.5%. Besides, the inhibition in assay [13] is 69.2%; in assay [14], 41%.

As to `O=S1(=O)c2cccc3cccc(c23)N1CCCN1CCN(c2ccc(F)cc2)CC1`, the inhibition in assay [1] was 96.8%; in [2], 98.7%; in assay [3] it was 1.23%; in assay [4], 58.5%; in [5], 108%; in assay [6], 45.5%. For the same molecule, the inhibition was 5.54% in assay [7]; 91.6% in [8]; -4.51% in assay [9]; 32.9% in [10]; 52.9% in assay [11]; 90.5% in assay [12]. Besides, the inhibition is 65.1% in [13] and 81.7% in assay [14].

Regarding `C[C@@H](NCCCc1cccc(C(F)(F)F)c1)c1cccc2ccccc12`, the inhibition is 27.9% in [1]; 77.9% in [2]; 25.8% in [3]; 94.4% in [4]; 48% in assay [5]; 18.1% in assay [6]. For the same molecule, the inhibition in [7] was 14%; in [8] it was 87.7%; in assay [9] it was 18%; in [10], 15.4%; in assay [11] it was 69.1%; in assay [12], 51.6%. The figures for the inhibition in assay [13] and in [14] were 60.8% and 62.7%, respectively.

For `O=C(c1cc2c(cc1F)OC(c1ccc(F)cc1)(c1ccc(Cl)cc1Cl)O2)N1CCOCC1` (stereo unspecified), the inhibition in assay [1] was 18.1%; in assay [2], 38.9%; in assay [3] it was -9.02%; in assay [4] it was 27.4%; in [5], 29.6%; in assay [6] it was 21%. Also, the inhibition was 32.4% in [7]; 5.52% in [8]; 19.9% in assay [9]; 1.36% in [10]; -8.59% in assay [11]; 5.01% in assay [12]. Also, the inhibition was 52% in assay [13] and 15.9% in [14].

`N#Cc1ccc2[nH]cc(CCCCN3CCN(c4ccc5oc(C(N)=O)cc5c4)CC3)c2c1`: the inhibition was 70% in [1]; 76.3% in assay [2]; 12.6% in [3]; 95.2% in [4]; 80.5% in [5]; 31.9% in [6]. Besides, the inhibition in assay [7] was 24.6%; in assay [8] it was 102%; in assay [9], 21.2%; in assay [10], 46.7%; in assay [11] it was 30.3%; in [12], 82.4%. Further, the inhibition in assay [13] is 98.1%; in assay [14], 96%.

For `Clc1cccc(COc2cncc(N3CCNCC3)n2)c1`, the inhibition is 33.7% in [1]; 36.9% in assay [2]; 82.1% in [3]; 79.6% in [4]; 42.2% in assay [5]; 20.2% in assay [6]. Besides, the inhibition in assay [7] was 49.1%; in assay [8] it was 86%; in assay [9], 76%; in [10] it was 97.8%; in assay [11], 97.9%; in assay [12], 87.1%. Besides, the inhibition was 20.2% in assay [13] and 2.44% in assay [14].

In the case of `NC[C@@H]1O[C@H](C23CC4CC(CC(C4)C2)C3)Cc2c1ccc(O)c2O`, the inhibition is 85.1% in assay [1]; 102% in [2]; 12.7% in assay [3]; 81% in [4]; 83.8% in assay [5]; 24.8% in [6]. Also, the inhibition was -6.56% in assay [7]; 14.3% in [8]; 22.3% in [9]; 39.6% in assay [10]; 19.1% in assay [11]; 25.1% in [12]. Also, the inhibition in assay [13] is 58.5%; in assay [14], 28.7%.

For the origin of these results see ChEMBL document CHEMBL5442219.
